Biological target: T1, hNav1.8 (Homo sapiens, UniProt Q9Y5Y9)
T1 construct: host or cells: HEK cells, stably transfected
Experiment: hNav1.8 whole-cell patch-clamp electrophysiology in HEK cells (conventional or PatchXpress 7000)
Format: cell-based
Settings: estimated IC50 calculated from single point % inhibition; HEK cells stably transfected with hNav1.8; 20 msec step to 0 mV after 8 second prepulse to V1/2; average of replicates; read-out: NaV1.8 EIC50
Description: The ability of the imidazole derivatives of the formula (I) to inhibit the NaV1.8 channel may be measured using the assay described below.
HEK cells stably transfected with hNav1.8, purchased from Millipore (Millipore Corp., Billerica, Mass. 01821), were maintained according to manufacturer's instructions. For electrophysiological studies, cells were removed from the culture flask by brief trypsinization and re-plated at low density onto glass cover slips. Cells were typically used for electrophysiological experiments within 24 to 72 h after plating.
Cover slips containing HEK cells expressing hNav1.8 were placed in a bath on the stage of an inverted microscope and perfused (approximately 1 mL/min) with extracellular solution of the following composition: 138 mM NaCl, 2 mM CaCl2, 5.4 mM KCl, 1 mM MgCl2, 10 mM glucose, and 10 mM HEPES, pH 7.4, with NaOH. […] The osmolarity of the extracellular and intracellular solutions was 300 mOsm/kg and 295 mOsm/kg, respectively. All recordings were made at room temperature (22-24° C.) using AXOPATCH 200B amplifiers and PCLAMP software (Axon Instruments, Burlingame, Calif.).
hNav1.8 currents in HEK cells were measured using the whole-cell configuration of the patch-clamp technique (Hamill et al., 1981). Uncompensated series resistance was typically 2 to 5 mega ohms and >85% series resistance compensation was routinely achieved. […] Current records were acquired at 20 to 50 KHz and filtered at 5 to 10 KHz.
HEK cells stably transfected with hNav1.8 were viewed under Hoffman contrast optics and placed in front of an array of flow pipes emitting either control or compound-containing extracellular solutions. All compounds were dissolved in dimethyl sulfoxide to make 10 mM stock solutions, which were then diluted into extracellular solution to attain the final concentrations desired.
The voltage-dependence of inactivation was determined by applying a series of depolarizing prepulses (8 sec long in 10 mV increments) from a negative holding potential. The voltage was then immediately stepped to 0 mV to assess the magnitude of the sodium current. Currents elicited at 0 mV were plotted as a function of prepulse potential to allow estimation of the voltage at which 50% of the channels were inactivated (midpoint of inactivation or V1/2). Compounds were tested for their ability to inhibit hNav1.8 sodium channels by activating the channel with a 20 msec voltage step to 0 mV following an 8 second conditioning prepulse to the empirically determined V1/2. Compound effect (% inhibition) was determined by difference in current amplitude before and after application of test compounds. For ease of comparison, “estimated IC-50” values were calculated from single point electrophysiology data by the following equation, (tested concentration, uM)×(100−% inhibition/% inhibition). Inhibition values <20% and >80% were excluded from the calculation.
In some cases electrophysiological assays were conducted with PatchXpress 7000 hardware and associated software (Molecular Devices Corp). All assay buffers and solutions were identical to those used in conventional whole-cell voltage clamp experiments described above. hNav1.8 cells were grown as above to 50%-80% confluency and harvested by trypsinization. Trypsinized cells were washed and resuspended in extracellular buffer at a concentration of 1×10^6 cells/mL. The onboard liquid handling facility of the PatchXpress was used for dispensing cells and application of test compounds. Determination of the voltage midpoint of inactivation was as described for conventional whole-cell recordings. Cells were then voltage-clamped to the empirically determined V1/2 and current was activated by a 20 msec voltage step to 0 mV.

T1 sequence (Q9Y5Y9 whole entry): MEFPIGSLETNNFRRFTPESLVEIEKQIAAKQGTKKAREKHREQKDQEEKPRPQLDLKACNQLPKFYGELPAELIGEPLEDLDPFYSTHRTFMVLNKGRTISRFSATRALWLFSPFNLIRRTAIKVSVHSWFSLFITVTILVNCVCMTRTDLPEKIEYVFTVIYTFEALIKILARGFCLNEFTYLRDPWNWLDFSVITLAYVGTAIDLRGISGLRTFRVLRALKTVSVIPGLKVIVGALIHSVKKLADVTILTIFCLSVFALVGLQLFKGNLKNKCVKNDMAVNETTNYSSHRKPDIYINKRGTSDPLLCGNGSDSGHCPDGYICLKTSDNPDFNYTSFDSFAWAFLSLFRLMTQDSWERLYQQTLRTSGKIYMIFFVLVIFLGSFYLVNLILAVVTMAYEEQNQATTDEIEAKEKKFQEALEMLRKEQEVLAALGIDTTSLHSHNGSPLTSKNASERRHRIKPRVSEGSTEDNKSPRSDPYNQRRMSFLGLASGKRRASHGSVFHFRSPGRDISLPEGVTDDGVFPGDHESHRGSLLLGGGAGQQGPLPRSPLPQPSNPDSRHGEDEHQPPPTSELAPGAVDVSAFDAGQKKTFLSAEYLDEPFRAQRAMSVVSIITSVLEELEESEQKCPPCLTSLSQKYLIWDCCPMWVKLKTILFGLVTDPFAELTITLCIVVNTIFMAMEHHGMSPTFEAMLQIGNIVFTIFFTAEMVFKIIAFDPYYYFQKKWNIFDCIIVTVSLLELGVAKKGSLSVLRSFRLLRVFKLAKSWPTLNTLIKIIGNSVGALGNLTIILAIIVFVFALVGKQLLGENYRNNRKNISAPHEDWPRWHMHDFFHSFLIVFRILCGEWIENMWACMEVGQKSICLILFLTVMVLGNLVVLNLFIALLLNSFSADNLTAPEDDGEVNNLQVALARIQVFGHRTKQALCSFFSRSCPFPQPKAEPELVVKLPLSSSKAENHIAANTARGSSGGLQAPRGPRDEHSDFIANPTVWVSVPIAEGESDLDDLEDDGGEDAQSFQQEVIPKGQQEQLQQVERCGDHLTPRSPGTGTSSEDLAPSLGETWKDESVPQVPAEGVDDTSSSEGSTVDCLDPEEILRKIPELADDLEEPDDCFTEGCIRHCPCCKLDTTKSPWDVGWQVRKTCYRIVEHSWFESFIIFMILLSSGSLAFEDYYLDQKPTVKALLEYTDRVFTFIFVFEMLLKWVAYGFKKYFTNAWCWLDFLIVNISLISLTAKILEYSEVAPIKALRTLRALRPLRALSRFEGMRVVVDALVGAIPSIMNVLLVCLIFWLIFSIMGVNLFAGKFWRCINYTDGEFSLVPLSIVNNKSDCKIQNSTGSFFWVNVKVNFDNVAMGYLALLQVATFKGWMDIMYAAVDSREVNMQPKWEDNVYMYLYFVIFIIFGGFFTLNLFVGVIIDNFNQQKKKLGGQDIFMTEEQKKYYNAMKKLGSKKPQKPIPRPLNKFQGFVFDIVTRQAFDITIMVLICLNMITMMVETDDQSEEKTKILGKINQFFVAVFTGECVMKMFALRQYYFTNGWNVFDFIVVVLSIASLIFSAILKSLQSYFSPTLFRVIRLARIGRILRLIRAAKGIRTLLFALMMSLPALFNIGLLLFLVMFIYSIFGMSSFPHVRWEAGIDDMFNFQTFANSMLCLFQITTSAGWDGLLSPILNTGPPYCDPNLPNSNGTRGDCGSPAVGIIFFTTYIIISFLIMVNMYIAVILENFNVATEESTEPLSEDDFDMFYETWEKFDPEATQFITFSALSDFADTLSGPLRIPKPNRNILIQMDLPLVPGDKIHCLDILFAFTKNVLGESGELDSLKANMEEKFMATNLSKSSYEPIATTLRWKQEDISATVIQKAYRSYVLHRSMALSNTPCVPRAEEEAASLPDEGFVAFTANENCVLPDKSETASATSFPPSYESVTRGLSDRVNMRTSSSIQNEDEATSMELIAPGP

CC[C@@H](c1nc(-c2ccc(OC(F)(F)F)cc2)c[nH]1)C1(N)COC1 (single isomer, unassigned) [Example 17]
IC50: 75 nM

C[C@@H](c1nc(-c2ccc(C(F)(F)F)cc2)c[nH]1)C1(N)COC1 (single isomer, unassigned) [Example 14]
IC50: 51 nM

NC1(Cc2nc(-c3ccc(OC(F)F)cc3)c[nH]2)COC1 [Example 5, 3-({4-[4-(Difluoromethoxy)phenyl]-1H-imidazol-2-yl}methyl)oxetan-3-amine]
IC50: 480 nM

NC1(Cc2nc(-c3ccc(S(F)(F)(F)(F)F)cc3)c[nH]2)COC1 [Example 6, 3-({4-[4-(Pentafluoro-λ^6-sulfanyl)phenyl]-1H-imidazol-2-yl}methyl)oxetan-3-amine]
IC50: 920 nM

C[C@@H](c1nc(-c2ccc(OC(F)(F)F)cc2)c[nH]1)C1(N)COC1 (single isomer, unassigned) [Example 11]
IC50: 9 nM

Cc1cc(-c2c[nH]c(CC3(N)COC3)n2)ccc1Cl [Example 2, 3-{[4-(4-Chloro-3-methylphenyl)-1H-imidazol-2-yl]methyl}oxetan-3-amine]
IC50: 360 nM

CC(c1nc(-c2ccc(OC(F)(F)F)cc2)c[nH]1)C1(N)COC1 (racemic) [Example 9, 3-(1-{4-[4-(Trifluoromethoxy)phenyl]-1H-imidazol-2-yl}ethyl)oxetan-3-amine]
IC50: 26 nM

NC1(Cc2nc(-c3ccc(C(F)(F)F)cc3)c[nH]2)COC1 [Example 4, 3-({4-[4-(Trifluoromethyl)phenyl]-1H-imidazol-2-yl}methyl)oxetan-3-amine]
IC50: 360 nM

CCC(c1nc(-c2ccc(OC(F)(F)F)cc2)c[nH]1)C1(N)COC1 (racemic) [Example 15, 3-(1-{4-[4-(Trifluoromethoxy)phenyl]-1H-imidazol-2-yl}propyl)oxetan-3-amine]
IC50: 11 nM

NC1(Cc2nc(-c3ccc(OC(F)(F)F)cc3)c[nH]2)CCOCC1 [Example 7, 4-({4-[4-(Trifluoromethoxy)phenyl]-1H-imidazol-2-yl}methyl)tetrahydro-2H-pyran-4-amine]
IC50: 400 nM

CC(c1nc(-c2ccc(C(F)(F)F)cc2)c[nH]1)C1(N)COC1 (racemic) [Example 12, 3-(1-{4-[4-(Trifluoromethyl)phenyl]-1H-imidazol-2-yl}ethyl)oxetan-3-amine]
IC50: 9.7 nM

NC1(Cc2nc(-c3ccc(OC(F)(F)F)cc3)c[nH]2)CCCOC1 (stereo not shown) [Example 1, 3-({4-[4-(Trifluoromethoxy)phenyl]-1H-imidazol-2-yl}methyl)tetrahydro-2H-pyran-3-amine]
IC50: 190 nM

C[C@H](c1nc(-c2ccc(C(F)(F)F)cc2)c[nH]1)C1(N)COC1 (single isomer, unassigned) [Example 13]
IC50: 7.8 nM

NC1(Cc2nc(-c3ccc(OC(F)(F)F)cc3)c[nH]2)CCOC1 (stereo not shown) [Example 3, 3-({4-[4-(Trifluoromethoxy)phenyl]-1H-imidazol-2-yl}methyl)tetrahydrofuran-3-amine]
IC50: 260 nM

C[C@H](c1nc(-c2ccc(OC(F)(F)F)cc2)c[nH]1)C1(N)COC1 (single isomer, unassigned) [Example 10]
IC50: 3.3 nM

CC[C@H](c1nc(-c2ccc(OC(F)(F)F)cc2)c[nH]1)C1(N)COC1 (single isomer, unassigned) [Example 16]
IC50: 32 nM

Source: patent publication US9079878B2, “(4-phenylimidazol-2-yl) ethylamine derivatives useful as sodium channel modulators” (Pfizer Limited, priority 2011, dated 2015)
